Source: patent publication US4087416A, “New heptapeptides and methods for their production” (Parke, Davis & Company, priority 1976, dated 1978)

System: LRF (luteinizing hormone releasing factor) induced luteinizing hormone (LH) release
Test: In vitro LRF antagonist test in rat anterior pituitary cell cultures
Format: cell-based
Source text: Heptapeptides of this invention were screened for LRF antagonist activity in vitro using rat anterior pituitary cell cultures as described by Vale et. al. [Endocrinology, 91, 562 (1972)]. The inhibition of LRF (luteinizing hormone releasing factor) induced luteinizing hormone (LH) release into the culture medium is the endpoint in this in vitro bioassay.

[1] = Molar Conc. 1×10^-6, first experiment (LRF 5×10^-10)
[2] = Molar Conc. 1×10^-7, first experiment (LRF 5×10^-10)
[3] = Molar Conc. 1×10^-8, first experiment (LRF 5×10^-10)
[4] = Molar Conc. 3.5×10^-7, first experiment (LRF 5×10^-10)
[5] = Molar Conc. 3.5×10^-8, first experiment (LRF 5×10^-10)
[6] = Molar Conc. 1×10^-7, second experiment (LRF 3.5×10^-10)
[7] = Molar Conc. 2×10^-7, second experiment (LRF 3.5×10^-10)
[8] = Molar Conc. 3.5×10^-7, second experiment (LRF 3.5×10^-10)

LRF Control: luteinizing hormone releasing factor, also referred to as luteinizing hormone releasing hormone; stimulates the secretion of luteinizing hormone (QHWSYGLRPG; Gonadoliberin-1; UniProt P01148 24-33, looked up) [reference compound]
LH Value (LRF alone, Molar Conc. 3.5×10^-10, second experiment): 40.01 ng/mL
LH Value (LRF alone, Molar Conc. 5×10^-10, first experiment): 38.48 ng/mL

N^α -t-Butoxycarbonyl-L-prolyl-N^im -benzyl-L-histidyl-N^im -benzyl L-histidyl-O-benzyl-L-seryl-O-benzyl-L-tyrosyl-L-tryptophyl-D-alanine N-ethylamide
% LH Release Inhibition [1]: 101%
LH Value [1]: 11.36 ng/mL
% LH Release Inhibition [2]: 77%
LH Value [2]: 17.83 ng/mL
% LH Release Inhibition [3]: 24%
LH Value [3]: 31.92 ng/mL
% LH Release Inhibition [4]: 99%
LH Value [4]: 11.90 ng/mL
% LH Release Inhibition [5]: 55%
LH Value [5]: 23.65 ng/mL

N^α -t-Butoxycarbonyl-L-prolyl-N^im -benzyl-L-histidyl-N^im -benzyl-L-histidyl-O-benzyl-L-seryl-O-benzyl-L-tyrosyl-L-tryptophyl-D-alanine methyl ester
% LH Release Inhibition [6]: 65%
LH Value [6]: 23.32 ng/mL
% LH Release Inhibition [7]: 58%
LH Value [7]: 24.98 ng/mL
% LH Release Inhibition [8]: 74%
LH Value [8]: 20.80 ng/mL
